Results from US9669016B2, “Antiparasitic effect of Bis[3,5-Bis(Benzylidene)-4-Oxo-1-Piperidinyl]amide Derivatives” (priority 2014, dated 2017).
Like-named read-outs stand apart in the source and are kept apart here.

Assays:
LLC-MK2 cells = experiment: Viability assay (Alamar Blue) on LLC-MK2 cells; assay type: cell-based, Rhesus monkey; conditions: Macaca mulatta, read-out: Mammalian cells IC50 ± SD, LLC-MK2
Method: Rhesus monkey kidney epithelial cell LLC-MK2 (American Type Culture Collection-ATCC, Manassas, Va. # CCL-7), Hs-27 human fibroblasts (American Type Culture Collection-ATCC, Manassas, Va.), RAW 264.7 murine macrophages (American Type Culture Collection-ATCC, Manassas, Va.) U2-09 human osteoblasts (American Type Culture Collection-ATCC, Manassas, Va. # HTB-99) (American Type Culture Collection-ATCC, Manassas, Va.) cells were cultured in Dulbecco's Modified Eagle's Medium (DMEM), supplemented with 10% inactivated FBS, along with 1% of 10,000 units/ml penicillin and 10 mg/ml streptomycin in 0.9% sodium chloride. Intraperitoneal BALB/c mice macrophages were obtained and cultured in DMEM high-glucose, +L-glu, supplemented with 10% FBS (inactivated). The procedure was performed minimizing the distress and pain for the animals following the NIH guidance and animal protocol approved by UTEP's Institutional Animal Care and Use Committee (IACUC).
Viability assay on mammalian cells and T. cruzi epimastigotes. The cytotoxicity and anti-trypanosomal activity of the NC compounds was tested in human Hs27 fibroblasts (ATCC CRL-1634), LLC-MK2 cells (ATCC CCL-7), RAW 264.7 murine macrophages (ATCC TIB71) (American Type Culture Collection-ATCC, Manassa, Va.), mice intraperitoneal macrophages and in epimastigote forms of T. cruzi Y strain using Alamar Blue assay (Invitrogen—Life Technology, Grand Island, N.Y.). The experiments were performed as described using a range of concentration of 500 μM to 1 nM.
The statistical significance (p-value) of the compound's cytotoxicity was calculated using the General Linear Mixed Model Analysis. This analysis was used to test the linear effect of the logarithm of dose on the logit transformation of the percent survival. The IC50 was obtained as the exponent of the negative ratio of the y-intercept and the slope of the fitted regression line (SAS Software, Version 9.2). […] All experiments had statistical significance determined at p≦0.05(*), p≦0.01(**), and p≦0.001(***).

[1] = test system: Leishmania major promastigotes; experiment: Luciferase survival assay on L. major promastigotes; assay type: cell-based
Method: Evaluation of the NC library activity against Leishmania major. The NC library (136 compounds) was screened using firefly luciferase-expressing L. major promastigotes referred to as Lmj-FV1-LUC-TK (L. major strain Friedlin (MHOM/JL/80/Friedlin) clone V1) engineered to express luciferase following integration of the construct pIR1SAT-LUC(a)-TK(b) (strain B5113) in the rRNA locus (S. M. Hickerson and S. M. Beverley, unpublished data). Enones (stock solutions in DMSO) were diluted (1 nM to 500 μM, in a final 1% DMSO) and added (1 μl per well) to 96-well microplates using an Eppendorf epMotion 5070 automated pipetting system. Promastigotes (10^6/well) were added, and parasite survival was assessed by luciferase activity with the substrate 5′-fluoroluciferin (ONE-Glo Luciferase Assay System, Promega) after 96-h incubation at 28° C., using a luminometer (Luminoskan, Thermo). The bioluminescent intensity was a direct measure of the survival of parasites. This was determined by comparing bioluminescent intensity of L. major parasites live/dead with MTT assay and cell counting. The primary compound screens were performed as single wells.

[2] = molecular target: trypanothione reductase (TR) from T. cruzi (Trypanosoma cruzi, UniProt P28593); experiment: Trypanothione reductase inhibition; assay type: biochemical; conditions: preliminary, unpublished data
Sequence of trypanothione reductase (TR) from T. cruzi (P28593 whole entry): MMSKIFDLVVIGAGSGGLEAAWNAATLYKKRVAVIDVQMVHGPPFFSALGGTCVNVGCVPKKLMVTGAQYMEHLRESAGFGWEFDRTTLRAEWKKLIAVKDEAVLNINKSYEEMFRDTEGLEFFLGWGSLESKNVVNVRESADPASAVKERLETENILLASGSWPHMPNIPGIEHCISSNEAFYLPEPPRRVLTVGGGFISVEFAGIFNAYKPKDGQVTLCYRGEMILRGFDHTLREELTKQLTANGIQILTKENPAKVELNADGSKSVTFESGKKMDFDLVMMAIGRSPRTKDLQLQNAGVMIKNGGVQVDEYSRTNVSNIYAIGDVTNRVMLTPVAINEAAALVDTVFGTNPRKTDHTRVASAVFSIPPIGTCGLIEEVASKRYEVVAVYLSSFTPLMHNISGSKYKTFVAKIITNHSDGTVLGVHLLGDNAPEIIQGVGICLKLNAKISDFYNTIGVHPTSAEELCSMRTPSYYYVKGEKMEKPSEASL

[3] = molecular target: lipoamide dehydrogenase (LipDH) also from T. cruzi (Trypanosoma cruzi, UniProt P90597); experiment: Lipoamide dehydrogenase inhibition; assay type: biochemical; conditions: preliminary, unpublished data
Sequence of lipoamide dehydrogenase (LipDH) also from T. cruzi (P90597 whole entry): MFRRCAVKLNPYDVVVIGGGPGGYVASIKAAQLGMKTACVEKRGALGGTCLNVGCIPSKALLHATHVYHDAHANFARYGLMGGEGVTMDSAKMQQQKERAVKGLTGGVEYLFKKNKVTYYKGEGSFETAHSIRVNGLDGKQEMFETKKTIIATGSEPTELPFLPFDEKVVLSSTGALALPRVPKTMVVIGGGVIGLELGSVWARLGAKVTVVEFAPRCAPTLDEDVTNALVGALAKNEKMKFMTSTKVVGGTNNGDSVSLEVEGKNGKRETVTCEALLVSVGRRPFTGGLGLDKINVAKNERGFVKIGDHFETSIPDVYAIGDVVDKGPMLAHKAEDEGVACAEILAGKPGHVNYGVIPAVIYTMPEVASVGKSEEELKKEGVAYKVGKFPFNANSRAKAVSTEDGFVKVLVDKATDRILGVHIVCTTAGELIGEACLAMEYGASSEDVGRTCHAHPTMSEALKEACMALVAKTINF

[4] = 96 h, read-out: estimated EC50, L. major promastigotes
[5] = 96 h incubation, read-out: L. major Promastigotes EC50

## CN(C)CC1CCC(CN(C)C)C1=O (stereo not shown) [NC884]
LLC-MK2 cells
  IC50: 15.1 ± 0.33 µM
[1]; [4]
  EC50: 1120 nM
[1]; [5]
  EC50: 1120 nM
[2]
  inhibition of trypanothione reductase: time-dependent irreversible inhibition
[3]
  inhibition of lipoamide dehydrogenase: time-dependent irreversible inhibition

## CN(C)CC1CCCC(CN(C)C)C1=O (stereo not shown) [NC901]
LLC-MK2 cells
  IC50: 8.02 ± 0.25 µM
[1]; [4]
  EC50: 453 nM
[1]; [5]
  EC50: 450 nM
[2]
  inhibition of trypanothione reductase: time-dependent irreversible inhibition
[3]
  inhibition of lipoamide dehydrogenase: time-dependent irreversible inhibition

## O=C1/C(=C/c2ccccc2)CN(C(=O)C(=O)N2C/C(=C\c3ccccc3)C(=O)/C(=C/c3ccccc3)C2)C/C1=C\c1ccccc1 [NC2459]
LLC-MK2 cells
  IC50: 2 ± 0.093 µM
[1]; [5]
  EC50: 20 nM
[1]; after a 96 hour treatment, read-out: estimated EC50, L. major promastigotes
  EC50: 20 nM
